Laboratory results from PubChem BioAssay (NCI).
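Tested at 5 concentrations; 48 h exposure; 96-well plates; endpoints linearly interpolated, else capped at highest concentration. TGI: total growth inhibition.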

Experiments:
Assay in all cases: NCI tumour cell line growth inhibition, 48 h
SN12C renal = system: SN12C renal
SNB-78 CNS = system: SNB-78 CNS
HOP-18 NSCLC = system: HOP-18 NSCLC
KM20L2 colon = system: KM20L2 colon
XF 498 CNS = system: XF 498 CNS
DLD-1 colon = system: DLD-1 colon
DMS 273 small cell lung = system: DMS 273 small cell lung
LXFL 529 NSCLC = system: LXFL 529 NSCLC
DMS 114 small cell lung = system: DMS 114 small cell lung
M19-MEL melanoma = system: M19-MEL melanoma
SN12K1 renal = system: SN12K1 renal
P388/ADR leukemia = system: P388/ADR leukemia

S=C1C=C(c2ccccc2)Sc2ccccc2N1
TGI (SN12C renal): > 100 µM

CCOC(=O)c1c(SCCO)n(-c2ccccc2)c(=S)n(-c2ccccc2)c1=O
TGI (SN12C renal): > 100 µM

O=C(NC(Nc1ccc(F)c(Cl)c1)(C(F)(F)F)C(F)(F)F)C(C(F)(F)F)C(F)(F)F
TGI (SN12C renal): > 100 µM

C[N+]1(C)CN(c2ccccc2)C2(CCN(CCCC(=O)c3cccs3)CC2)C1=O
TGI (SN12C renal): > 100 µM

CSC(=NCCN=C(NS(=O)(=O)c1ccc(Cl)cc1)SC)NS(=O)(=O)c1ccc(Cl)cc1
TGI (SN12C renal): > 100 µM

NC(=O)N(O)c1cccc(Br)c1
TGI (SN12C renal): > 100 µM

CC(=O)OC[C@@]12C[C@H]3C(=O)C(C)(C)C[C@H]3[C@]1(C)[C@@H](OC(C)=O)[C@]1(O)[C@H]([C@@H](OC(=O)c3ccccc3)[C@@H](C)[C@H]1OC(C)=O)[C@H]2OC(C)=O
TGI (SN12C renal): > 20 µM

Cc1ccc(/C=N/Nc2ncccn2)s1
TGI (SN12C renal): > 100 µM

COc1cc(CC2c3cc(OC)c(OC)cc3CCN2C)c(Oc2cc3c(cc2OC)-c2c(OC)c(OC)c(OC)c4c2C(C3)N(C)CC4)cc1OC (stereo not given)
TGI (SN12C renal): 28.6 µM | TGI (SNB-78 CNS): 34.5 µM | TGI (HOP-18 NSCLC): 31.1 µM | TGI (KM20L2 colon): 17.8 µM | TGI (XF 498 CNS): 26.6 µM | TGI (DLD-1 colon): 29.8 µM | TGI (DMS 273 small cell lung): 26.2 µM | TGI (LXFL 529 NSCLC): 27.1 µM | TGI (DMS 114 small cell lung): 26 µM | TGI (M19-MEL melanoma): 28.6 µM

CC1OC(=O)c2ccccc2NC1=O (stereo not given)
TGI (SN12C renal): > 100 µM

CCCCCCCSCC(O)COC(c1ccccc1)(c1ccccc1)c1ccccc1 (stereo not given)
TGI (SN12C renal): > 100 µM

CCOC(=O)CCC(NC(=O)OCc1ccccc1)C(=O)NC(CCC(=O)OCC)C(=O)NC(CCC(=O)OCC)C(=O)NC(CCC(=O)OCC)C(=O)NC(CCC(=O)OCC)C(=O)OCC (stereo not given)
TGI (SN12C renal): > 100 µM

O=C(C1OC1c1ccc([N+](=O)[O-])cc1)C12CC3CC(CC(C3)C1)C2 (stereo not given)
TGI (SN12C renal): 29.7 µM

CC1(C)CC(=O)c2c(nc3ccc4ccccc4c3c2-c2ccc(NC(=O)CCCCC(=O)Nc3ccc(-c4c5c(nc6ccc7ccccc7c46)CC(C)(C)CC5=O)cc3)cc2)C1
TGI (SN12C renal): > 100 µM

Cc1n[nH]c(=O)n1N=C(c1ccccc1)c1ccccc1
TGI (SN12C renal): > 100 µM

CC/C(Cl)=N\OC(=O)Nc1ccc(C#N)cc1
TGI (SN12C renal): 30.3 µM

CCCCCCCCCN1CCC(=O)C(C(=O)OC)C1 (stereo not given)
TGI (SN12C renal): 29.5 µM

CN1C[C@@H]2CCCN2P1Oc1cccc2cccnc12 (stereo not given in full)
TGI (SN12C renal): > 100 µM

CSc1c(C#N)c2n(c3ccccc3[n+]2C)c2ncccc12
TGI (SN12C renal): 67.5 µM

CCN(CC)CCNc1ccc(C)c2sc3ccc(O)cc3c(=O)c12
TGI (SN12C renal): 1.85 µM | TGI (SNB-78 CNS): 7.88 µM | TGI (HOP-18 NSCLC): 5.94 µM | TGI (KM20L2 colon): 5.46 µM | TGI (XF 498 CNS): 2.56 µM | TGI (DLD-1 colon): 3.47 µM | TGI (DMS 273 small cell lung): 1.91 µM | TGI (LXFL 529 NSCLC): 2.54 µM | TGI (DMS 114 small cell lung): 2.27 µM | TGI (M19-MEL melanoma): 2.36 µM

CSCCC(NC(c1ccccc1)c1ccccc1)[P+](=O)O (stereo not given)
TGI (SN12C renal): > 100 µM

Cc1nc2c(-c3ccccc3)[nH]c(C)c2c(=O)o1
TGI (SN12C renal): > 100 µM

C[C@@H]1CCC2[C@@H](C)C(=O)O[C@@H]3C4C[C@@H]1[C@@]23OO[C@@]4(C)O (stereo not given in full)
TGI (SN12C renal): > 100 µM

Nc1ccn(C2OC(COP(=O)(O)Oc3ccccc3)C(O)C2O)c(=O)n1 (stereo not given)
TGI (SN12C renal): > 100 µM | TGI (SNB-78 CNS): > 100 µM | TGI (HOP-18 NSCLC): 98.1 µM | TGI (KM20L2 colon): > 100 µM | TGI (SN12K1 renal): > 100 µM | TGI (DLD-1 colon): > 100 µM | TGI (DMS 273 small cell lung): > 100 µM | TGI (DMS 114 small cell lung): > 100 µM | TGI (M19-MEL melanoma): > 100 µM | TGI (P388/ADR leukemia): > 100 µM

CCC1(C)N=C(C(N)=O)c2ncn(N=C(C)C)c2N1 (stereo not given)
TGI (SN12C renal): > 100 µM

C=C(Cl)C(Cl)(CBr)CCC(Cl)C(C)(C)Cl (stereo not given)
TGI (SN12C renal): 22.5 µM

COc1ccc(C)cc1NC(=S)N/N=C/c1ccc(SC)cc1
TGI (SN12C renal): > 100 µM

COc1ccc2c(c1)c1cc(OC)ccc1n2CCCCOc1ccc(-c2c3ccccc3c(-c3ccc(OCCCCn4c5ccc(OC)cc5c5cc(OC)ccc54)cc3)c3ccccc23)cc1
TGI (SN12C renal): > 100 µM | TGI (KM20L2 colon): > 100 µM | TGI (XF 498 CNS): > 100 µM | TGI (DLD-1 colon): > 100 µM | TGI (DMS 273 small cell lung): > 100 µM | TGI (DMS 114 small cell lung): > 100 µM | TGI (M19-MEL melanoma): > 100 µM

COCN1C(=O)[C@@H]2CCCN2C(=O)c2cc([N+](=O)[O-])ccc21
TGI (SN12C renal): > 100 µM

Cc1cc(=Nc2ccc3c(c2)c(N)cc(C)[n+]3C)nc(N)n1C
TGI (SN12C renal): > 100 µM

O=C(/C=C/c1ccc(O)c(O)c1)OCCOC(=O)/C=C/c1ccc(O)c(O)c1
TGI (SN12C renal): 65.1 µM

Clc1nc2c(-c3cccs3)ncnc2n1Cc1ccccc1
TGI (SN12C renal): > 100 µM

Cc1nc(-c2nc([N+](=O)[O-])c([N+](=O)[O-])[nH]2)cs1
TGI (SN12C renal): > 100 µM | TGI (SNB-78 CNS): > 100 µM | TGI (KM20L2 colon): > 100 µM | TGI (XF 498 CNS): > 100 µM | TGI (DLD-1 colon): > 100 µM | TGI (DMS 273 small cell lung): > 100 µM | TGI (LXFL 529 NSCLC): > 100 µM | TGI (DMS 114 small cell lung): > 100 µM | TGI (M19-MEL melanoma): > 100 µM

CCOC(=O)c1nc2cc(C(F)(F)F)ccc2nc1Nc1ccc(Cl)c(Cl)c1
TGI (SN12C renal): > 100 µM

CC(C)(C)/C(O)=C\c1nc2cc(C(F)(F)F)ccc2[nH]c1=O
TGI (SN12C renal): > 100 µM

NC(CCCCNc1ccn(C2OC(CO)C(O)C2O)c(=O)n1)C(=O)O (stereo not given)
TGI (SN12C renal): > 100 µM

C[C@@H]1C(O)CC[C@H](C)C12CC=CC2=O (stereo not given in full)
TGI (SN12C renal): > 100 µM

COC(=O)C1=C(O)C(C(=O)OC)[C@]2(O)[C@H](C(=O)OC)[C@H]1C[C@@H](c1ccc(OC)cc1)[C@H]2C(=O)OC (stereo not given in full)
TGI (SN12C renal): 53.9 µM

CO[C@H]1O[C@@H]2CO[C@@H](c3ccccc3)O[C@H]2C[C@]12CCC/C=C\CO2
TGI (SN12C renal): 29.7 µM
